Measured values as given in paper PMC5843908, “Detection of PRMT1 inhibitors with stopped flow fluorescence” (Signal Transduction and Targeted Therapy, 2018).

Experiments:
PRMT5 = tested on: PRMT5; design: method as in PMID 24564570; settings: cited from earlier work
CARM1 = tested on: CARM1; design: method as in PMID 24564570; settings: cited from earlier work
PRMT6 = tested on: PRMT6; design: method as in PMID 24564570; settings: cited from earlier work
PRMT1 = PRMT1 (Homo sapiens, UniProt Q99873); assay: Stopped flow fluorescence assay of PRMT1 inhibition ([PRMT1] 0.2 µM, [SAM] 3.5 µM, [H4FL] 0.4 µM); format: biochemical;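 note: Stopped-flow traces of fluorescent H4FL peptide quenched on binding PRMT1 and restored on release, recorded 900 s, averaged over repeated drives and fit to a double-exponential model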
PRMT1, sequence (Q99873 29-371): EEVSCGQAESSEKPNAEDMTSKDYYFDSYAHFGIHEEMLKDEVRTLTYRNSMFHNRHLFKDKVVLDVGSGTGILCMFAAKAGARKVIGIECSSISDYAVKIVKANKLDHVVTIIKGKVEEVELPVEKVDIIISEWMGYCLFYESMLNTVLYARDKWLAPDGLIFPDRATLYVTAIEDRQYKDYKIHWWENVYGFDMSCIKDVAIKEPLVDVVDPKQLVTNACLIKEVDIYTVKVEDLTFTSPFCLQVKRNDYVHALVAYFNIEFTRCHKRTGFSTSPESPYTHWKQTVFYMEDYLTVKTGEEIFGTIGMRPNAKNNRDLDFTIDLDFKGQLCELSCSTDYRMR
Text: To obtain the IC50 of a specific inhibitor, the relative activities of the enzyme in presence of different concentrations of the inhibitor are required (equation 1).[37] […] By adding different concentrations of the inhibitor to the reaction mixture, the relative activity of the enzyme can be obtained by normalizing K to the reaction rate without the inhibitor, and then calculate the IC50 value using equation 1. In our stopped flow fluorescence assay, the reaction rate of Phase I and Phase II can be obtained by approximating and deriving the double-exponential equation (equation 2). In Phase I, during a very short period of time (where t is small), the curve is nearly linear, and the exponential equation can be approximately described as F1 = a · (−k1) · t. Therefore, the derivation of F1 equals –k1∙a, which is the slope of Phase I. Similarly, the curve of Phase II at early stage can be approximately described as F2 = b · (−k2) · t. This derivation of F2 equals –k2∙b, which is the slope of Phase II. The slopes at various inhibitor concentrations, normalized to the slope in the absence of inhibitor, can be used to obtain the corresponding relative enzyme activity from which the potency value (IC50) of the inhibitor can be calculated with equation 1.
In a stopped flow fluorescence assay, the binding of H4FL to PRMT1 (or the PRMT1—cofactor complex) quenches the peptide fluorescence, while release of the peptide restores the fluorescence. […] The widths of the entrance and exit slits of the monochromator were set to 0.5 mm. An equal volume of samples from two syringes was driven into the observation cell for mixing measurements. The H4FL concentration in all experiments was 0.4 μM. […] The fluorescent signal was recorded for 900 seconds, with 10,000 data points in total. Data from four to six drives were collected and averaged for each curve.
After averaging the shot data, the association time courses were fitted to a double-exponential function (equation 2) using GraphPad Prism (CA, USA). […] F is the fluorescence intensity at time t, k1, and k2 are the rate constants for Phase I and Phase II, a is the amplitude of the fluorescence change for k1, and b is the amplitude of the fluorescence change for k2. Simulation curves based on the values of a, b, k1, and k2 at fixed c = 1 were produced using Matlab. The IC50 value of inhibitors is determined by equation 1 using GraphPad Prism (CA, USA).

N=C(N)c1ccc(-c2ccc(-c3ccc(C(=N)N)cc3)o2)cc1 [DB75, furamidine]
inhibition selectivity for PRMT1 over PRMT5 (PRMT5): more than 15 fold | inhibition selectivity for PRMT1 over CARM1 (CARM1): 42 fold | inhibition selectivity for PRMT1 over PRMT6 (PRMT6): 30 fold | mechanism of inhibition suggested by Phase I/Phase II pattern (PRMT1): substrate-competitive inhibitor | -b·k2 (slope of Phase II) (PRMT1; [DB75] 2.5 µM): 0.0008427 ± 1.61e-06 s⁻¹ | a (amplitude, Phase I) (PRMT1; [DB75] 2.5 µM): 0.1608 ± 3.86E-04 | a·k1 (slope of Phase I) (PRMT1; [DB75] 2.5 µM): 0.00951 ± 4.83e-05 s⁻¹ | b (amplitude, Phase II) (PRMT1; [DB75] 2.5 µM): -0.203 ± 1.66E-04 | k1 (rate constant, Phase I) (PRMT1; [DB75] 2.5 µM): 0.05913 ± 2.65E-04 s^-1 | k2 (rate constant, Phase II) (PRMT1; [DB75] 2.5 µM): 0.004151 ± 7.18E-06 s^-1 | -b·k2 (slope of Phase II) (PRMT1; [DB75] 5 µM): 0.0005995 ± 1.19e-06 s⁻¹ | a (amplitude, Phase I) (PRMT1; [DB75] 5 µM): 0.1114 ± 3.10E-04 | a·k1 (slope of Phase I) (PRMT1; [DB75] 5 µM): 0.00741 ± 4.25e-05 s⁻¹ | b (amplitude, Phase II) (PRMT1; [DB75] 5 µM): -0.14 ± 1.20E-04 | k1 (rate constant, Phase I) (PRMT1; [DB75] 5 µM): 0.06653 ± 3.34E-04 s^-1 | k2 (rate constant, Phase II) (PRMT1; [DB75] 5 µM): 0.004282 ± 7.68E-06 s^-1 | -b·k2 (slope of Phase II) (PRMT1; [DB75] 7.5 µM): 0.0005125 ± 1.42e-06 s⁻¹ | a (amplitude, Phase I) (PRMT1; [DB75] 7.5 µM): 0.1285 ± 3.57E-04 | a·k1 (slope of Phase I) (PRMT1; [DB75] 7.5 µM): 0.00616 ± 3.66e-05 s⁻¹ | b (amplitude, Phase II) (PRMT1; [DB75] 7.5 µM): -0.1789 ± 1.33E-04 | k1 (rate constant, Phase I) (PRMT1; [DB75] 7.5 µM): 0.04791 ± 2.52E-04 s^-1 | k2 (rate constant, Phase II) (PRMT1; [DB75] 7.5 µM): 0.002865 ± 7.66E-06 s^-1 | -b·k2 (slope of Phase II) (PRMT1; [DB75] 10 µM): 0.0003506 ± 2.59e-06 s⁻¹ | a (amplitude, Phase I) (PRMT1; [DB75] 10 µM): 0.06466 ± 3.90E-04 | a·k1 (slope of Phase I) (PRMT1; [DB75] 10 µM): 0.0024 ± 3.23e-05 s⁻¹ | b (amplitude, Phase II) (PRMT1; [DB75] 10 µM): -0.07628 ± 3.14E-04 | k1 (rate constant, Phase I) (PRMT1; [DB75] 10 µM): 0.03706 ± 4.47E-04 s^-1 | k2 (rate constant, Phase II) (PRMT1; [DB75] 10 µM): 0.004596 ± 2.82E-05 s^-1 | -b·k2 (slope of Phase II) (PRMT1; [DB75] 20 µM): 0.00011 ± 4.39e-06 s⁻¹ | a (amplitude, Phase I) (PRMT1; [DB75] 20 µM): 0.02855 ± 5.16E-04 | a·k1 (slope of Phase I) (PRMT1; [DB75] 20 µM): 0.000854 ± 2.84e-05 s⁻¹ | b (amplitude, Phase II) (PRMT1; [DB75] 20 µM): -0.01837 ± 5.38E-04 | k1 (rate constant, Phase I) (PRMT1; [DB75] 20 µM): 0.02992 ± 8.36E-04 s^-1 | k2 (rate constant, Phase II) (PRMT1; [DB75] 20 µM): 0.005985 ± 1.62E-04 s^-1 | -b·k2 (slope of Phase II) (PRMT1; [DB75] 40 µM): 0 s⁻¹ | a (amplitude, Phase I) (PRMT1; [DB75] 40 µM): 0.009937 ± 5.73E-04 | a·k1 (slope of Phase I) (PRMT1; [DB75] 40 µM): 0.00133 ± 0.000128 s⁻¹ | k1 (rate constant, Phase I) (PRMT1; [DB75] 40 µM): 0.1335 ± 1.03E-02 s^-1 | inhibition of Phase II (PRMT1; [DB75] above 10 µM): almost fully inhibited
